Tests used:
[1] = system: lambsquarters (Chenopodium album); test: Postemergence herbicidal activity; type: in vivo; settings: Table 5; rate 31 ppm
In short: (§1)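 Plants are raised from seed under greenhouse conditions until the first or second true leaf appears. They are then sprayed with test solutions at known concentrations, where 1 ppm corresponds to roughly 1 g/Ha. Two weeks later, injury is rated by eye from 0 to 100%.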

[2] = system: wild buckwheat (Polygonum convolvulus); test: Postemergence herbicidal activity; type: in vivo; settings: for pest or weed control at 250 ppm: rate 250 ppm
In short: as §1

[3] = system: cocklebur (Xanthium strumarium); test: Postemergence herbicidal activity; type: in vivo
In short: as §1

[4] = system: chickweed (Stellaria media); test: Postemergence herbicidal activity; type: in vivo; settings: for pest or weed control at 250 ppm: rate 250 ppm
In short: as §1

[5] = system: velvetleaf (Abutilon theophrasti); test: Preemergence herbicidal activity; type: in vivo; settings: Abutilon theophrasti, 504 h, Table 6 (headed Post-emergent; text: preemergence), after 3 weeks, read-out: % Control ABUTH; for pest or weed control at 280 ppm: rate 280 ppm
In short: (§2)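 Test compounds in acetone/DMSO were diluted in water with 0.1% Tween 155 and sprayed onto the soil surface of freshly seeded pots (loam/sand 70:30, pH about 8.1). Plants grew in a greenhouse at about 23-29° C day under a 15 h photoperiod. Injury was scored visually after 3 weeks versus untreated plants, 0-100%.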

[6] = system: pigweed (Amaranthus retroflexus); test: Preemergence herbicidal activity; type: in vivo; settings: Amaranthus retroflexus, 504 h, Table 6 (headed Post-emergent; text: preemergence), after 3 weeks, read-out: % Control AMARE; for pest or weed control at 280 ppm: rate 280 ppm
In short: as §2

[7] = system: morningglory (Ipomoea hederacea); test: Preemergence herbicidal activity; type: in vivo; settings: Ipomoea, 504 h, Table 6 (headed Post-emergent; text: preemergence), after 3 weeks, read-out: % Control IPOHE; for pest or weed control at 280 ppm: rate 280 ppm
In short: as §2

[8] = system: wheat (Triticum aestivum); test: Postemergence herbicidal activity, selectivity to wheat; type: in vivo; settings: Table 5; crop (wheat); rate 31 ppm
Experimental: (§3) Seeds of the desired test plant species were planted in Grace-Sierra MetroMix® 306 planting mixture, which typically has a pH of 6.0 to 6.8 and an organic matter content of about 30 percent, in plastic pots with a surface area of 64 square centimeters. When required to ensure good germination and healthy plants, a fungicide treatment and/or other chemical or physical treatment was applied. The plants were grown for 7-21 days in a greenhouse with an approximate 15 hr photoperiod which was maintained at about 23-29° C. during the day and 22-28° C. during the night. Nutrients and water were added on a regular basis and supplemental lighting was provided with overhead metal halide 1000-Watt lamps as necessary. The plants were employed for testing when they reached the first or second true leaf stage.
(§4) A weighed amount, determined by the highest rate to be tested, of each test compound was placed in a 20 mL glass vial and was dissolved in 4 mL of a 97:3 v/v (volume/volume) mixture of acetone and dimethyl sulfoxide (DMSO) to obtain concentrated stock solutions. […] The concentrated stock solutions obtained were diluted with an aqueous mixture containing acetone, water, isopropyl alcohol, DMSO, Atplus 411F crop oil concentrate, and Triton X-155 surfactant in a 48.5:39:10:1.5:1.0:0.02 v/v ratio to obtain spray solutions of known concentration. The solutions containing the highest concentration to be tested were prepared by diluting 2 mL aliquots of the stock solution with 13 mL of the mixture and lower concentrations were prepared by serial dilution of the stock solution. Approximately 1.5 mL aliquots of each solution of known concentration were sprayed evenly onto each of the test plant pots using a DeVilbiss atomizer driven by compressed air pressure of 2 to 4 psi (140 to 280 kilopascals) to obtain thorough coverage of each plant. Control plants were sprayed in the same manner with the aqueous mixture. In this test an application rate of 1 ppm results in the application of approximately 1 g/Ha.
(§5) The treated plants and control plants were placed in a greenhouse as described above and watered by sub-irrigation to prevent wash-off of the test compounds. After 2 weeks the condition of the test plants as compared with that of the untreated plants was determined visually and scored on a scale of 0 to 100 percent where 0 corresponds to no injury and 100 corresponds to complete kill.

[9] = system: pigweed (Amaranthus retroflexus); test: Postemergence herbicidal activity; type: in vivo; settings: Table 4; rate 250 ppm
In short: as §1

[10] = system: velvetleaf (Abutillon theophrasti); test: Postemergence herbicidal activity; type: in vivo; settings: Table 4; rate 250 ppm
In short: as §1

[11] = system: corn (Zea mays); test: Postemergence herbicidal activity, selectivity to corn; type: in vivo; settings: Table 4; crop (corn); rate 250 ppm
Experimental: as §3
as §4, with “Approximately 1.5 mL aliquots of each solution of known concentration were sprayed evenly onto each of the test plant pots using a DeVilbiss atomizer driven by compressed air pressure of 2 to 4 psi (140 to 280 kilopascals) to obtain thorough coverage of each plant. Control plants were sprayed in the same manner with the aqueous mixture. In this test an application rate of 1 ppm results in the application of approximately 1 g/Ha.” left out
as §5

[12] = system: field bindweed (Convolvulus arvensis); test: Range & Pasture Crop Testing (postemergence track sprayer); type: in vivo; settings: Table 10; clover pasture; postemergence
Experimental: (§6) By applying the well-accepted probit analysis as described by J. Berkson in Journal of the […], 48, 565 (1953) and by D. Finney in “Probit Analysis” Cambridge University Press (1952), the above data can be used to calculate GR50 and GR80 values, which are defined as growth reduction factors that correspond to the effective dose of herbicide required to kill or control 50 percent or 80 percent, respectively, of a target plant.
(§7) Rates are calculated based upon 5 doses being applied. The high rate (X), followed by serial dilutions of 1/2×, 1/4×, 1/8× and 1/16×. Compound requirements are based upon the 187 L/ha carrier volume, specifications of the delivery system (Mandel track sprayer) and generating 24 mL of technical spray material to allow for the dilutions and overage in the sprayer. [formula]
(§8) All technical materials were formulated in 97:3 (acetone:DMSO) with 0.25% X-77. The total volume of solvent is maintained at less than 7%. An overhead Mandel track sprayer calibrated to deliver 187 L/ha was used for all treatment applications (postemergence). Picloram was included as a comparison treatment.
(§9) Solutions were applied with a mechanized track-sprayer at the following settings:
(§10) Spray height: 17 inches above top of plants
(§11) This provides an application volume of 187 L/ha.
(§12) Percent weed control (burn down) was evaluated 3 weeks after treatment. Visual control on a 0-100 linear scale was used, with 0 representing no control and 100 representing total control. Burn down ratings were taken for annual and perennial weed species.

[13] = system: White Clover (Trifolium repens); test: as above; type: in vivo; settings: Table 10
Experimental: as §6, §7, §8, §9, §10, §11, §12

[14] = system: Canada thistle (Cirsium arvense); test: as above; type: in vivo; settings: Table 10; clover pasture; postemergence
Experimental: as §6, §7, §8, §9, §10, §11, §12

[15] = Fallopia convolvulus, post-emergence, 336 h, Table 1, visual, after 2 weeks, read-out: Post-emergent % Control POLCO
[16] = Xanthium strumarium, post-emergence, 336 h, Table 1, rate 250 ppm, visual, after 2 weeks, read-out: Post-emergent % Control XANST
[17] = Stellaria media, post-emergence, 336 h, Table 1, visual, after 2 weeks, read-out: Post-emergent % Control STEME

Row | Compound | pest or weed control at 250 ppm [2, 15] [%] | pest or weed control at 250 ppm [3, 16] [%] | pest or weed control at 250 ppm [4, 17] [%] | melting point [°C] | pest or weed control at 280 ppm [5] [%] | pest or weed control at 280 ppm [6] [%] | pest or weed control at 280 ppm [7] [%] | GR80 CONAR [12] [g/ha] | GR20 TRFRE [13] [g/ha] | GR80 CIRAR [14] [g/ha] | further results
1 | Nc1cc(C(F)(F)F)nc(C(=O)O)c1Cl [Compound 46, 4-Amino-3-chloro-6-trifluoromethylpyridine-2-carboxylic acid] | 100 | 90 | 60 | 131 to 133 | – | – | – | – | – | – | Post-emergent Evaluation - % control CHEAL [1]: 100%; Post-emergent Evaluation - % control POLCO ([2]; Table 5, rate 31 ppm): 100%; Post-emergent Evaluation - % control STEME ([4]; Table 5, rate 31 ppm): 50%; pest or weed control at 140 ppm ([5]; rate 140 ppm): 95%; pest or weed control at 140 ppm ([6]; rate 140 ppm): 95%; pest or weed control at 140 ppm ([7]; rate 140 ppm): 100%; Post-emergent Evaluation - % control TRZAS [8]: 10%
2 | Nc1c(Cl)c(C(=O)O)nc(Cl)c1Br [Compound 20, 4-Amino-3,6-dichloro-5-bromopyridine-2-carboxylic acid] | 50 | 85 | 90 | 201 to 202 | – | – | – | – | – | – | Post-emergent Evaluation - % control AMARE [9]: 90%; Post-emergent Evaluation - % control XANST ([3]; Table 4, rate 250 ppm): 85%; Post-emergent Evaluation - % control ABUTH [10]: 70%; Post-emergent Evaluation - % control ZEAMX [11]: 10%; pest or weed control at 560 ppm ([5]; rate 560 ppm): 100%; pest or weed control at 560 ppm ([6]; rate 560 ppm): 100%; pest or weed control at 560 ppm ([7]; rate 560 ppm): 100%
3 | CCCOC(=O)c1nc(Cl)cc(N)c1Cl [Compound 5, n-propyl 4-amino-3,6-dichloropyridine-2-carboxylate] | – | – | – | 94 to 95 | 100 | 100 | 100 | 140.1 | <17.5 | <17.5 | pest or weed control at 125 ppm ([2]; Fallopia convolvulus, post-emergence, 336 h, Table 1, rate 125 ppm, visual, after 2 weeks, read-out: Post-emergent % Control POLCO): 100%; pest or weed control at 125 ppm ([3]; Xanthium strumarium, post-emergence, 336 h, Table 1, rate 125 ppm, visual, after 2 weeks, read-out: Post-emergent % Control XANST): 100%; pest or weed control at 125 ppm ([4]; Stellaria media, post-emergence, 336 h, Table 1, rate 125 ppm, visual, after 2 weeks, read-out: Post-emergent % Control STEME): 100%
4 | CCCCOC(=O)c1nc(Cl)cc(N)c1Cl [Compound 7, n-butyl 4-amino-3,6-dichloropyridine-2-carboxylate] | 100 | 100 | 100 | 78 to 79 | 100 | 100 | 100 | 116.6 | 15.3 | 17.3 | –

— patent publication US20010047099A1, “4-aminopicolinates and their use as herbicides” (priority 2000, published 2001)
